In brackets after ≈: the same amount, converted by molar mass.

The conditions of the series: buffer; pH 7.4; 6.0 h; 150.0 µM.
Consider `COc1cccc(CC(=O)Nc2nc(-c3ccc4c(c3)CCN4C(=O)c3ccccc3C)c(C)s2)c1`, for which the solubility (kinetic) – broadly, solubility judged after dilution from a stock solution rather than from solid – is below 1 µg/mL. The compound `FC(F)(F)c1cccc(Sc2nc(-c3ccccc3)nnc2C(F)(F)F)c1` returned a kinetic solubility below 1 µg/mL. In the case of `CN(C)c1cccc(-c2nccc(N3CCC(C(N)=O)CC3)n2)c1`, the solubility (kinetic) is above 48 µg/mL.

Take `CC(=O)N1CCN(c2nc(-c3ccc(Br)cc3)cs2)CC1`: the solubility (kinetic) was below 1 µg/mL.

In turn, `CC(C)(C)c1ccc(SC2=NS(=O)(=O)c3ccccc32)cc1` registered a kinetic solubility below 1 µg/mL. Under `Fc1cccc(Nc2nc(-c3ccncc3)nc3ccccc23)c1F` stands below 1 µg/mL; under `O=C(Nc1ncc(Cc2ccc(C(F)(F)F)cc2)s1)c1cn(-c2ccccc2)cn1`, below 1 µg/mL; under `COc1cc(Cl)ccc1C(=O)Nc1nc(-c2ccccc2)cs1`, below 1 µg/mL. Under `Cn1c2cc(S(C)=O)sc2c2cnn(Cc3cccc(N)c3)c(=O)c21` (stereo unspecified) stands above 55 µg/mL; under `Cc1ccc(-c2cc(C(=O)Nc3ccc(-c4noc(=O)[nH]4)cc3)c3ccccc3n2)cc1C`, 1.39 µg/mL (≈ 3.19 µM); under `NC(=O)N1CCN(c2nc(-c3ccc(Br)cc3)cs2)CC1`, 1.84 µg/mL (≈ 5.01 µM). `CN1CCN(c2cc(-c3nc(Nc4ccc(F)c(F)c4)c4ccccc4n3)ccn2)CC1`: the solubility (kinetic) is below 1 µg/mL.

As to `CCCCn1cnc2cc(NCc3ccc(OCC)cc3)ccc21`, the solubility (kinetic) came to 10.1 µg/mL (≈ 31.2 µM).

For the compound `Cc1cc(C)nc(NC(=S)N2CCN(c3nccc(C(F)(F)F)n3)CC2)c1`, the solubility (kinetic) came out at 7.21 µg/mL (≈ 18.2 µM). `CCNc1oc(-c2cccc3ccccc23)nc1C#N` returned a kinetic solubility below 1 µg/mL.

Consider `CC(=O)c1ccc(N2CCN(C(=O)c3ccc4c(c3)CC(=O)N4)CC2)cc1`, for which the kinetic solubility is above 54 µg/mL.

As to `C=CCc1ccc(O)c(-c2ccc(O)c(CC=C)c2)c1`, the kinetic solubility is above 100 µg/mL. With `CSc1ccc(-c2cnc(N3CCC(C(N)=O)CC3)s2)cc1`, the kinetic solubility was below 1 µg/mL.

As to `O=S(=O)(Nc1nc2n(n1)C(c1ccccc1)C=C(c1ccc(Cl)cc1)N2)c1ccccc1` (stereo unspecified), the kinetic solubility was 1.09 µg/mL (≈ 2.36 µM). `Cc1c(Cl)cccc1NC(=O)CNS(=O)(=O)c1cccs1` showed a solubility (kinetic) above 51 µg/mL. The figure for `C[C@@H](O)CNC(C)(C)CC(=O)N[C@@H]1CCc2ccccc2N(Cc2ccc(-c3ccccc3-c3nn[nH]n3)cc2)C1=O` is above 84 µg/mL.

Compound `NC(=O)C1CCN(c2nc(-c3cccc(N)c3)cs2)CC1` yielded a kinetic solubility above 45 µg/mL. With `O=S(=O)(c1ccccc1)c1nc(-c2ccc(F)cc2)oc1N1CCCCCC1`, the kinetic solubility is below 1 µg/mL.

Compound `COc1ccc(-c2nc3ncccc3[nH]2)cc1` gave a kinetic solubility above 67 µg/mL. The figure for `Fc1cc(Nc2nc(-c3ccncc3)nc3ccccc23)ccc1C(F)(F)F` is below 1 µg/mL; for `CC(C)Oc1ccccc1C(=O)Nc1nc(-c2ccccc2)cs1` it is below 1 µg/mL; for `COc1ccc(NC(=O)c2[nH]c(C)c(C(C)=O)c2C)cc1[S+](=O)([O-])Nc1ccccc1C#N` it is 55.6 µg/mL (≈ 119 µM). Under `Cc1nc2sccn2c(=O)c1S(=O)(=O)Nc1ccc(N2CCN(S(C)(=O)=O)CC2)cc1` stands 6.85 µg/mL (≈ 14.2 µM); under `Cc1ccc(-c2nc(C)c(C(=O)Nc3ccc4c(c3)C(=O)N3CCC[C@H]3C(=O)N4)s2)cc1`, 4.88 µg/mL (≈ 10.9 µM); under `O=C(/C=C/c1cn(CC(O)CN2CCCCCC2)c2ccccc12)c1ccc(Br)cc1` (stereo unspecified), below 1 µg/mL. As to `Cc1cc(NS(=O)(=O)c2ccc3c(c2)CCC(=O)N3)ccc1F`, the kinetic solubility was above 49 µg/mL. `COc1ccc(OC)c(CN2CCNc3cc(Nc4ccccc4)ncc3C2)c1`: the kinetic solubility is above 86 µg/mL. For the compound `O=C1Nc2ccccc2C1Cc1cc(Cl)c(O)c(Cl)c1` (stereo unspecified), the kinetic solubility is above 45 µg/mL. As for `COc1cccc(C(=O)Nc2ccc3c(N4CCOCC4)ncnc3c2)c1`, the kinetic solubility is above 54 µg/mL. The figure for `Cc1nn2c(c1-c1ccccc1-c1ccccc1)N(CC1CC1)CCC2` is 1.56 µg/mL (≈ 4.53 µM); for `CCOc1ccc(CCN(C)C(=O)c2cc3sccc3n2Cc2ccccc2)cc1OCC` it is below 1 µg/mL; for `Cc1ccccc1C(=O)N1CCc2cc(-c3nc(NC(=O)Cc4ccccc4)sc3C)ccc21` it is below 1 µg/mL. `Cc1ccccc1C(=O)Nc1sc2c(c1C(=O)NCc1ccco1)CCC(C(C)(C)C)C2` (stereo unspecified) displayed a solubility (kinetic) below 1 µg/mL. `Oc1cccc(-c2nc(N3CCOCC3)c3oc4ncccc4c3n2)c1` displayed a solubility (kinetic) below 1 µg/mL. For `COc1ccc(C2C=C(c3ccc(Cl)cc3)Nc3nc(-c4ccc(Cl)cc4)nn32)cc1` (stereo unspecified), the solubility (kinetic) was below 1 µg/mL.

In turn, `Nc1c(C(=O)Nc2ccc(F)cc2)sc2nc(-c3cccs3)cc(C(F)(F)F)c12` returned a kinetic solubility below 1 µg/mL.

`CN(C)c1cccc(-c2nc(N3CCC(C(N)=O)CC3)ncc2F)c1`: the kinetic solubility is 42.6 µg/mL (≈ 124 µM).

On to `Cc1ccc2c(c1)[nH]c1c(N3CCN(Cc4ccccc4)CC3)ncnc12`, for which the kinetic solubility is below 1 µg/mL.

The compound `O=[N+]([O-])c1ccc(CNc2ccc([S+](=O)([O-])Nc3nccs3)cc2)c(O)c1` registered a kinetic solubility above 60 µg/mL. The figure for `Cn1nnnc1Sc1ncnc2sc(-c3ccccc3)cc12` is 0.088 µg/mL (≈ 0.27 µM); for `N=c1c2c(ccn1CCc1ccccc1)Oc1ccc3ccccc3c1C2c1ccccc1` (stereo unspecified) it is below 1 µg/mL.

In the case of `Nc1nccc2c1ncn2[C@@H]1C=C(CO)[C@@H](O)[C@H]1O`, the solubility (kinetic) is above 39 µg/mL. Under `Fc1cc(Nc2nc(-c3ccncc3)nc3ccccc23)ccc1-c1cccc(C(F)(F)F)c1` stands below 1 µg/mL; under `COc1ccc2c(c1)N(C[C@H](C)CN(C)C)c1ccccc1S2`, above 48 µg/mL.

Take `O=[S+]([O-])(Nc1nccs1)c1ccc(NCc2cc(F)cc(Cl)c2O)cc1`: the solubility (kinetic) came to 18.5 µg/mL (≈ 44.7 µM). Under `Cc1cccc(N2CCN(C(=O)Cn3ncc4c3-c3ccccc3OC4)CC2)c1C` stands 3.85 µg/mL (≈ 9.57 µM); under `N#Cc1ccccc1Nc1ncc(-c2cccc3ccccc23)o1`, below 1 µg/mL. For `Fc1ccc(-c2ccc(Nc3nc(-c4ccncc4)nc4ccccc34)cc2F)cc1`, the kinetic solubility was below 1 µg/mL.

`CCc1ccc(S(=O)(=O)Nc2cnccc2C(=O)Nc2nc(-c3ccccc3)cs2)cc1` registered a kinetic solubility below 1 µg/mL. `CCCCCn1c(=O)[nH]c2cc(C(=O)NCCCN3CCCCC3)ccc2c1=O` returned a solubility (kinetic) above 59 µg/mL.

Regarding `Nc1c(C(=O)Nc2ccc(Cl)cc2)sc2nc3c(cc12)N1CCC3CC1`, the kinetic solubility was below 1 µg/mL. The figure for `CCn1c(C(=O)NCCc2ccc(OC)cc2)cc2sccc21` is 2.08 µg/mL (≈ 6.34 µM); for `O=C(Nc1cccc(Cc2ccccc2)c1)c1ccc(-c2cccc([N+](=O)[O-])c2)o1` it is below 1 µg/mL; for `CO[C@@H]1/C=C\O[C@@]2(C)Oc3c(C)c(O)c4c(c3C2=O)C(=N[C@H]2CC[C@H](O)O[C@@H]2C)C=C(NC(=O)/C(C)=C\C(=O)[C@@H]2C[C@@H]2[C@@H](O)[C@H](C)[C@@H](O)[C@H](C)[C@H](OC(C)=O)[C@@H]1C)C4=O` it is 32.3 µg/mL (≈ 39.3 µM). Take `Oc1ccc(-c2nc(C3CC3)nc3c2CCN(CC2CCCCC2)CC3)cc1`: the solubility (kinetic) stood at 11.3 µg/mL (≈ 29.9 µM). This solubility kinetic lies about 2.9-fold lower than the previous one. The figure for `CCN1CCN(CCCNC(=O)c2ccc3c(c2)sc2nc(-c4ccc(OC)cc4)cn23)CC1` is above 71 µg/mL; for `CCOc1cc2c(cc1OCC)CN(C(=O)c1cc3sccc3n1Cc1ccccc1)CC2` it is below 1 µg/mL. Under `Cc1cnc(SCc2ccccn2)nc1C1CCCN(C(=O)c2scc3c2CCCC3)C1` (stereo unspecified) stands 4.03 µg/mL (≈ 8.68 µM); under `COc1ccc(NC(=O)c2[nH]c(C)c(C(C)=O)c2C)cc1S(=O)(=O)Nc1ccc(C#N)cc1`, 4.06 µg/mL (≈ 8.7 µM); under `Cc1nn2c(c1-c1ccccc1-c1ccccc1)N(Cc1ccc(C(=O)O)s1)CCC2`, above 63 µg/mL. The compound `COC1C(OC(=O)c2ccc(C)[nH]2)C(O)C(Oc2ccc3c(O)c(NC(=O)c4ccc(O)c(CC=C(C)C)c4)c(=O)oc3c2Cl)OC1(C)C` (stereo unspecified) came in with a kinetic solubility above 100 µg/mL. In turn, `COc1ccc(N2Cc3cccc(C(=O)Nc4ccc(C(C)C)cc4)c3C2=O)cc1` yielded a solubility (kinetic) below 1 µg/mL. The figure for `O=C(Nc1ccc(S(=O)(=O)Nc2ncc(-c3ccccc3)s2)cc1)c1ccc2ccccc2c1` is below 1 µg/mL. The figure for `O=C(Nc1ccc(-c2ccccc2)cc1)[C@H](Cc1ccc(O[S+](=O)([O-])c2cccc3cnccc23)cc1)N[S+](=O)([O-])c1cccc2cnccc12` is below 1 µg/mL. `NC(=O)c1ccc(-c2nc3c([nH]2)CN(C(=O)CN2CCOCC2)CC3)cc1` returned a solubility (kinetic) above 55 µg/mL. As to `COC12C(COC(N)=O)C3=C(C(=O)C(C)=C(N)C3=O)N1CC1C2N1C` (stereo unspecified), the solubility (kinetic) is above 51 µg/mL. Under `COc1ccc(CN2CCNc3cc(Nc4ccccc4)ncc3C2)cn1` stands 31.1 µg/mL (≈ 86 µM); under `COc1ccc(C2=Nc3ccc(C)cc3C(c3ccccc3)N2CC(=O)NN)cc1` (stereo unspecified), above 59 µg/mL; under `COc1cc2c(cc1-c1c(C)noc1C)ncc1[nH]c(=O)n([C@H](C)c3ccccn3)c12`, above 61 µg/mL. The figure for `Cc1ccc(C(=O)Nc2nc3nc(-c4ccccc4)cc(=O)n3[nH]2)cc1` is 2.64 µg/mL (≈ 7.65 µM). Under `CC(=O)NCCNC(=O)c1ccc(-c2ncc3cnc(-c4cccc(F)c4)cn23)cc1` stands above 92 µg/mL; under `CC(=O)c1c(C)[nH]c(C(=O)Nc2cccc([S+](=O)([O-])Nc3cccnc3)c2)c1C`, above 61 µg/mL; under `COc1ccc(NC(=O)C2=C(C)NC(Nc3nc4ccccc4o3)=NC2c2ccccc2Br)cc1` (stereo unspecified), below 1 µg/mL.

`Cc1ccc(S(=O)(=O)Nc2cc(F)c(F)cc2C(=O)Nc2nc(-c3ccccc3)cs2)cc1` showed a solubility (kinetic) below 1 µg/mL. In turn, `O=c1[nH]c(C2CCN(S(=O)(=O)c3ccc4c(c3)OCCO4)CC2)nc2c1nnn2Cc1c(F)cccc1Cl` had a solubility (kinetic) below 1 µg/mL.

`c1ccc(Nc2cc3c(cn2)CN(Cc2cccs2)CCN3)cc1`: the solubility (kinetic) amounted to 42.8 µg/mL (≈ 127 µM). Under `CCC(=O)NC(c1ccco1)c1cc(Cl)c2cccnc2c1O` (stereo unspecified) stands below 1 µg/mL; under `COc1cccc(CNCCSc2nnnn2C)c1OCc1ccc(Cl)cc1Cl`, 16.6 µg/mL (≈ 36.4 µM).

With `CCOC(=O)c1ccc(-c2ccc3ncnc(NCCc4cnc[nH]4)c3c2)o1`, the solubility (kinetic) was 26.2 µg/mL (≈ 69.4 µM). The figure for `COc1ncccc1-c1cc2c(ccn2C(C)C)c(C(=O)NCc2c(C)cc(C)[nH]c2=O)n1` is 10.1 µg/mL (≈ 22.8 µM); for `Cc1ccc(C(=O)N2CCc3c(nc4cc(-c5ccccc5)[nH]n4c3=O)C2)cn1` it is 8.67 µg/mL (≈ 22.5 µM).

These data come from PubChem BioAssay AID1645848.
